The nature of the data set: Gravimetric vapor sorption (GVS). It counts as physicochemical. The following applies: 25° C. As to the method:
GVS experiments were conducted on a Surface Measurement Systems DVS-Advantage. The experiments were performed at 25° C. The instrument was operated in step mode and the relative humidity was increased in 10% RH increments from 0% RH to 90% RH with an extra step at 75% RH, then decreased from 90% RH to 0% RH with an extra step at 75% RH. The mass equilibrium criterion was set at 0.005% change in mass over time (dm/dt). A minimum step time of 15 minutes and a maximum step time of 240 minutes were specified.

Each structure is given as a SMILES string.

We go through one compound from patent US20240217918A1 (APNIMED, INC. (DELAWARE), priority 2021, published 2024).

Consider `CCN(CC)CC#CCOC(=O)[C@](O)(c1ccccc1)C1CCCCC1` [Form A, (R)-oxybutynin D-malate], for which, where the note is “GVS, 0-90% RH”, the hygroscopicity result was “non-hygroscopic solid”. Where the note is “GVS, between 0-90% RH”, the moisture uptake turned out to be 0.1%. Further, the “change in crystal form after the GVS test” value (after GVS cycle 0-90-0% RH) is reported as “No change in crystal form was observed”.
